Source: paper PMC8088928 (Cancer Science, 2021)

What was measured:
[1] = biological target: Recombinant Human Her2/ErbB2 Protein (Homo sapiens, UniProt P04626); experiment: Microscale thermophoresis; type: binding
HER2 kinase = HER2 kinase (Homo sapiens, UniProt P04626); experiment: Enzyme activity assay of HER2; type: biochemical
MKN‐45 cells = experiment: CCK‐8 cytotoxicity / proliferation assay; type: cell-based, human; settings: for IC50: Homo sapiens, MKN-45, 72 h, read-out: IC50 (cytotoxic activity); for Effect on proliferation of tumor cells (in words): MKN‐45 cells, 72 h, CCK‐8
Human PD‐L1 Fc Protein = Human PD‐L1 Fc Protein (Homo sapiens, UniProt Q9NZQ7); experiment: Microscale thermophoresis; type: binding
Chain of Human PD‐L1 Fc Protein (Q9NZQ7 19-238 limits assumed): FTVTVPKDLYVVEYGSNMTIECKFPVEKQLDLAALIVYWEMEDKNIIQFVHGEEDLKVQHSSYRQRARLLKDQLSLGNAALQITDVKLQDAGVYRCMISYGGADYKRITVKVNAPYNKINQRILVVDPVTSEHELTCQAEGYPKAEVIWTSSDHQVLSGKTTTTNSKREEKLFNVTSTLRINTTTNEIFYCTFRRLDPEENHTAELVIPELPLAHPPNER

Chain of Recombinant Human Her2/ErbB2 Protein (P04626 23-1255): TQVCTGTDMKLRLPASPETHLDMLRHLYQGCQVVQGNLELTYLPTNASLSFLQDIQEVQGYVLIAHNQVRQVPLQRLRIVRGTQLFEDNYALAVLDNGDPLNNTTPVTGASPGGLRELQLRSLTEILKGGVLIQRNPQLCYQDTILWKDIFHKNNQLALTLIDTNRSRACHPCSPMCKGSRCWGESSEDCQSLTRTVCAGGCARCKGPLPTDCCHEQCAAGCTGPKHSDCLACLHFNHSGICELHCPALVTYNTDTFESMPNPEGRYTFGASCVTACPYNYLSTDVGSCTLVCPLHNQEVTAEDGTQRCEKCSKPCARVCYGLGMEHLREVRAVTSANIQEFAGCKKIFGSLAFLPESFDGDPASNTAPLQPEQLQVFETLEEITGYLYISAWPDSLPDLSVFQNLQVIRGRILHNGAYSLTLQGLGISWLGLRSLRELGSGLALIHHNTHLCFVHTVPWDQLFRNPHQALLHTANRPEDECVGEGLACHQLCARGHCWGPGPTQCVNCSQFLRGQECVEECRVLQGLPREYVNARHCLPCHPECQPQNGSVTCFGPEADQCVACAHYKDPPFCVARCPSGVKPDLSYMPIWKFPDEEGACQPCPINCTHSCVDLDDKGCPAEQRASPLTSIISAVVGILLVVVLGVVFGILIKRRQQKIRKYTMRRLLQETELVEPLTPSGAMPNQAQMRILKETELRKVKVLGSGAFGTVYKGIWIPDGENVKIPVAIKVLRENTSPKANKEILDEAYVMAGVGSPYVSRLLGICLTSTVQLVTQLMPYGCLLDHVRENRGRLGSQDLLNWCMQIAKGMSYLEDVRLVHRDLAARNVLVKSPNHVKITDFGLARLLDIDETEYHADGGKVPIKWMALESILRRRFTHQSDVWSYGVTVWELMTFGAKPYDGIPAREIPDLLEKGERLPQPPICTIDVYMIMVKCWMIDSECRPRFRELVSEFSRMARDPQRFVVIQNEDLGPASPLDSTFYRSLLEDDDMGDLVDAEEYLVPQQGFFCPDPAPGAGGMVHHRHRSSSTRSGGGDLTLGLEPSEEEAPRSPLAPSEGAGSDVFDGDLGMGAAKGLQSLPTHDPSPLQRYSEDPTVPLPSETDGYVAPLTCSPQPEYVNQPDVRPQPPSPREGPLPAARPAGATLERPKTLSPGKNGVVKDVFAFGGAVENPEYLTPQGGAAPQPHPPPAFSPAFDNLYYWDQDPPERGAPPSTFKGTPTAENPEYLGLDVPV
Chain of HER2 kinase (P04626 23-1255): as above

Kd [1] [nM] | IC50 (HER2 kinase) [nM] | Kd (Human PD‐L1 Fc Protein) [nM] | SMILES | IC50 (MKN‐45 cells) [nM] | Effect on proliferation of tumor cells (in words) (MKN‐45 cells)
490 | 570 |  | O=c1c(O)c(-c2ccc(O)c(O)c2)oc2cc(O)cc(O)c12 [Quercetin] | 19300 | potential antiproliferative effects
 |  | 355 | COc1ccc(-c2coc3cc(O)ccc3c2=O)cc1 [Formononetin] |  | could not inhibit proliferation of tumor cells
3700 |  |  | O=c1c(-c2ccc(O)cc2)coc2cc(O)ccc12 [Daidzein] | 21500 | potential antiproliferative effects
 |  | 667 | COc1cc(-c2oc3cc(O)cc(O)c3c(=O)c2O)ccc1O [Isorhamnetin] | 10800 | potential antiproliferative effects
